The values below come from patent US8748412B2, “Phenylalanine derivatives and their use as non-peptide GLP-1 receptor modulators” (Argusina Bioscience Inc., priority 2011, dated 2014).

Structures are written as SMILES.

For one experiment, the target named is T1, human GLP1R (Homo sapiens, UniProt P43220).
T1 construct: expressed in transfected cells; host or cells: CHO cells (ATCC), transient transfection with pCMV-human GLP1R
T1 sequence (P43220 24-463): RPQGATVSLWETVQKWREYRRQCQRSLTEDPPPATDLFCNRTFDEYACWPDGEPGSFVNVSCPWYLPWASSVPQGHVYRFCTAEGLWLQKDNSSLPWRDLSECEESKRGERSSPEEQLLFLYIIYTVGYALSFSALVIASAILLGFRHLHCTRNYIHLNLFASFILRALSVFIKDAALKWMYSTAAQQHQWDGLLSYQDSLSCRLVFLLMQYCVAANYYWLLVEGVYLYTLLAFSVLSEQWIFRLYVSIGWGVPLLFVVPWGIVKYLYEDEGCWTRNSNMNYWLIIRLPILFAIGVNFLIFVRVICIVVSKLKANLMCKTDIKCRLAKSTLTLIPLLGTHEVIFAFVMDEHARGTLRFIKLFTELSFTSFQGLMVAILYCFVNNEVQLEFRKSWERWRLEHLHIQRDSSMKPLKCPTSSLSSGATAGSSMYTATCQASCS
As to the kind of experiment: Human GLP-1 receptor transfected cell assay (MRE/CRE-luciferase reporter gene, agonist activity). In kind it is cell-based. The following applies: 6 h; concentration 1 μM; read-out: Activity (agonist), percentage of the activity of the control. An outline of the steps: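 CHO cells transiently co-transfected with human GLP1R and MRE/CRE-driven luciferase reporter plasmids. Compound or GLP-1 (7-36 amide) standard dilution series added for 6 h at 37 °C, 5% CO2. Agonist activity read as Bright-Glo luciferase luminescence.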
In general terms: In a reporter assay the amount or activity of a reporter protein is the signal.
Regarding `Cc1ccc(-c2ccc(C(=O)NC(Cc3ccc(-c4ccc(-c5ccc(NC(=O)OC(C)(C)C)cc5)s4)c(F)c3)C(=O)O)o2)cc1` (stereo not drawn) [Compound 5N], the activation at 1 µM is above 60%. As for `CC(C)(C)OC(=O)Nc1ccc(-c2nc(-c3ccc(C[C@@H](NC(=O)c4ccc(-c5ccc(C6CC6)cc5)o4)C(=O)O)cc3F)no2)cc1` [Compound 6G], the activation at 1 µM was 40 to 60%.

Still in this experiment, the particulars now being: 6 h; concentration 3 μM; read-out: Activity (agonist), percentage of the activity of the control.
As for `CC(C)c1ccc(-c2cccc(C(=O)N[C@H](Cc3ccc(-c4noc(-c5ccc(NC(=O)OC(C)(C)C)cc5)n4)c(F)c3)C(=O)O)c2)cc1` [Compound 6D], the activation at 3 µM lay in the range of 20 to 40%.

Staying with this experiment, now noted: 6 h; concentration 3.16 μM; read-out: Activity (agonist), percentage of the activity of the control.
As to `CC(C)(C)OC(=O)Nc1ccc(-c2ccc(-c3ccc(CC(NC(=O)c4ccc(-c5ccc(F)cc5)o4)C(=O)O)cc3F)s2)cc1` (stereo not drawn) [Compound 5O], the activation at 3.16 µM was above 60%. With `CC(C)(C)OC(=O)Nc1ccc(/C=C/c2ccc(CC(NC(=O)c3ccc(NC(=O)OC(C)(C)C)cc3)C(=O)O)cc2F)cc1` (stereo not drawn) [Compound 5R], the activation at 3.16 µM is 40 to 60%. `CC(C)c1ccc(-c2ccc(C(=O)N[C@H](Cc3ccc(-c4noc(-c5ccc(NC(=O)OC(C)(C)C)cc5)n4)c(F)c3)C(=O)O)o2)cc1` [Compound 6B]: the activation at 3.16 µM was 40 to 60%.

Regarding `Cc1ccc(-c2ccc(C(=O)NC(Cc3ccc(F)c(C#Cc4ccc(NC(=O)OC(C)(C)C)cc4)c3)C(=O)O)o2)cc1` (stereo not drawn) [Compound 6E], the activation at 3.16 µM is above 60%. In the case of `Cc1ccc(-c2cccc(C(=O)N[C@H](Cc3ccc(-c4noc(-c5ccc(NC(=O)OC(C)(C)C)cc5)n4)c(F)c3)C(=O)O)c2)cc1Cl` [Compound 6H], the activation at 3.16 µM is above 60%.

Still in this experiment, the particulars now being: 6 h; concentration 10 μM; read-out: Activity (agonist), percentage of the activity of the control.
With `Cc1ccc(-c2ccc(C(=O)N[C@H](Cc3ccc(-c4cc(-c5ccc(NC(=O)OC(C)C)cc5)[nH]n4)c(F)c3)C(=O)O)o2)cc1` [Compound 5P], the activation at 10 µM was above 60%. The same measure, in the same setting: next, `Cc1ccc(-c2ccc(C(=O)N[C@H](Cc3ccc(-c4cn(-c5ccc(NC(=O)OC(C)C)cc5)nn4)c(F)c3)C(=O)O)o2)cc1` [Compound 5Q]: above 60%; `Cc1ccc(-c2ccc(C(=O)NC(Cc3ccc(NC(=O)c4cccc(Br)c4)c(F)c3)C(=O)O)o2)cc1` (stereo not drawn) [Compound 5S]: above 60%. On the same count and under the same terms, next, `Cc1ccc(-c2ccc(C(=O)N[C@H](Cc3ccc(/C=C/c4ccc(NC(=O)OC(C)(C)C)cc4)c(F)c3)C(=O)O)o2)cc1` [Compound 5T]: above 60%.

On to `Cc1ccc(-c2cccc(C(=O)NC(Cc3ccc(-c4noc(C(=O)N5CCC(C)CC5)n4)c(F)c3)C(=O)O)c2)cc1` (stereo not drawn) [Compound 5U], for which the activation at 10 µM is above 60%.

`COc1cc2c(cc1OC(=O)c1ccc(NC(=O)OC(C)(C)C)cc1)CN(S(=O)(=O)c1ccc(C)cc1)C(C(=O)O)C2` (stereo not drawn) [Compound 5V]: the activation at 10 µM was above 60%. Consider `COc1cc2c(cc1OC(=O)c1ccc(NC(=O)OC(C)(C)C)cc1)CN(C(=O)c1ccc(-c3ccc(C)cc3)o1)C(C(=O)O)C2` (stereo not drawn) [Compound 5W], for which the activation at 10 µM is above 60%. Consider `CC(C)(C)OC(=O)Nc1ccc(C(=O)Oc2ccc3c(c2)CN(C(=O)c2ccc(NC(=O)OC(C)(C)C)cc2)C(C(=O)O)C3)cc1` (stereo not drawn) [Compound 5X], for which the activation at 10 µM is above 60%. As to `Cc1ccc(S(=O)(=O)N2Cc3cc(OC(=O)c4ccc(NC(=O)OC(C)(C)C)cc4)ccc3CC2C(=O)O)cc1F` (stereo not drawn) [Compound 5Y], the activation at 10 µM was above 60%. For the molecule `Cc1ccc(-c2ccc(C(=O)NC3(C(=O)O)Cc4ccc(-c5noc(-c6ccc(NC(=O)OC(C)(C)C)cc6)n5)cc4C3)o2)cc1` (stereo not drawn) [Compound 5Z], the activation at 10 µM is above 60%. As to `CC(C)(C)OC(=O)Nc1ccc(-c2nc(-c3ccc(C[C@@H](NC(=O)c4cccc(-c5ccc(Cl)cc5)c4)C(=O)O)cc3F)no2)cc1` [Compound 6A], the activation at 10 µM was above 60%. On to `CC(C)(C)OC(=O)Nc1ccc(-c2nc(-c3ccc(C[C@@H](NC(=O)c4cccc(-c5ccc(Cl)cc5F)c4)C(=O)O)cc3F)no2)cc1` [Compound 6C], for which the activation at 10 µM was above 60%. Turning to `CC(C)(C)OC(=O)Nc1ccc(-c2nc(-c3ccc(C[C@@H](NC(=O)c4cccc(-c5ccc(Cl)c(F)c5)c4)C(=O)O)cc3F)no2)cc1` [Compound 6F], the activation at 10 µM is above 60%.
